Measured values published in ChEMBL document CHEMBL1201862, “PubChem BioAssay data set” (2004).
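A five-concentration, 48-hour dose response in 96-well plates underlies each endpoint, interpolated linearly between surrounding concentrations. The concentration for 50% growth inhibition is given as GI50.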 The source made the active and inactive calls. Cut-off read from the data, not from the text of the source: active = GI50 up to about 1.1 µM and inactive = higher. Where a SMILES comes first, the peptide text is derived from it.

Experiments:
Experiment in all cases: NCI anticancer screen, dose series, 48 h
HOP-62 = system: HOP-62
UACC-62 = system: UACC-62
Malme-3M = system: Malme-3M
LOX IMVI = system: LOX IMVI
SK-MEL-2 = system: SK-MEL-2
RPMI-8226 = system: RPMI-8226
MOLT-4 = system: MOLT-4
SF-295 = system: SF-295
HT-29 = system: HT-29
HCT-15 = system: HCT-15
MDA-MB-435 = system: MDA-MB-435
A549 = system: A549
EKVX = system: EKVX
TK-10 = system: TK-10
786-0 = system: 786-0
DU-145 = system: DU-145
NCI-H23 = system: NCI-H23
U-251 = system: U-251
SR = system: SR
MDA-MB-231 = system: MDA-MB-231

SMILES	GI50 (HOP-62)	GI50 (UACC-62)	GI50 (Malme-3M)	GI50 (LOX IMVI)	GI50 (SK-MEL-2)	GI50 (RPMI-8226)	GI50 (MOLT-4)	GI50 (SF-295)	GI50 (HT-29)	GI50 (HCT-15) [µM]	GI50 (MDA-MB-435)	GI50 (A549)	GI50 (EKVX)	GI50 (TK-10)	GI50 (786-0)	GI50 (DU-145)	GI50 (NCI-H23)	GI50 (U-251)	GI50 (SR)	GI50 (MDA-MB-231)
CC(=O)c1c(C)cn(S(=O)(=O)NC(=O)Nc2nncs2)c1C	> 100 µM (inactive)	> 100 µM (inactive)	> 100 µM (inactive)	> 100 µM (inactive)	> 100 µM (inactive)	> 100 µM (inactive)	> 100 µM (inactive)	> 100 µM (inactive)	> 100 µM (inactive)	> 100	> 100 µM (inactive)	> 100 µM (inactive)	> 100 µM (inactive)	> 100 µM (inactive)	> 100 µM (inactive)	> 100 µM (inactive)	> 100 µM (inactive)	> 100 µM (inactive)	> 100 µM (inactive)	> 100 µM (inactive)
Nc1ccccc1OCCCOc1ccccc1N	> 100 µM (inactive)	> 100 µM (inactive)	> 100 µM (inactive)	> 100 µM (inactive)	> 100 µM (inactive)	> 100 µM (inactive)	> 100 µM (inactive)	> 100 µM (inactive)	> 100 µM (inactive)	> 100	57.1 µM (inactive)	> 100 µM (inactive)	> 100 µM (inactive)	> 100 µM (inactive)	> 100 µM (inactive)	> 100 µM (inactive)	> 100 µM (inactive)	> 100 µM (inactive)	88.5 µM (inactive)	> 100 µM (inactive)
Cn1c(=O)c2nc(CSCc3ccccc3)[nH]c2n(C)c1=O	> 100 µM (inactive)	> 100 µM (inactive)	> 100 µM (inactive)	> 100 µM (inactive)	> 100 µM (inactive)	67.6 µM (inactive)	> 100 µM (inactive)	85.7 µM (inactive)	71.4 µM (inactive)	> 100	> 100 µM (inactive)	45.6 µM (inactive)	24.8 µM (inactive)	> 100 µM (inactive)	> 100 µM (inactive)	> 100 µM (inactive)	> 100 µM (inactive)	> 100 µM (inactive)	> 100 µM (inactive)	> 100 µM (inactive)
CCOC(=O)C1C(c2ccc3c(c2)OCO3)c2c(n[nH]c2O)CC1(C)O (stereo not given)	> 100 µM (inactive)	> 100 µM (inactive)	56.1 µM (inactive)	> 100 µM (inactive)	> 100 µM (inactive)	> 100 µM (inactive)	> 100 µM (inactive)	> 100 µM (inactive)	> 100 µM (inactive)	> 100	> 100 µM (inactive)	> 100 µM (inactive)	> 100 µM (inactive)	> 100 µM (inactive)	> 100 µM (inactive)	> 100 µM (inactive)	> 100 µM (inactive)	> 100 µM (inactive)	> 100 µM (inactive)	> 100 µM (inactive)
O=c1c(Cl)cc2nc3ccccc3sc-2c1Cl	26.1 µM (inactive)	11.5 µM (inactive)	10 µM (inactive)	12 µM (inactive)	13.7 µM (inactive)	4.25 µM (inactive)	3.61 µM (inactive)	16.9 µM (inactive)	23.2 µM (inactive)	14.7	2.82 µM (inactive)	18.7 µM (inactive)	3.22 µM (inactive)	17.9 µM (inactive)	21.2 µM (inactive)	12.9 µM (inactive)	11 µM (inactive)	17.6 µM (inactive)	4.57 µM (inactive)	5.78 µM (inactive)
CN(C)C(=S)/N=c1\ssc(=S)n1Cc1cccs1	3.64 µM (inactive)	2.7 µM (inactive)	2.4 µM (inactive)	4.06 µM (inactive)	2.88 µM (inactive)	5.81 µM (inactive)	17.5 µM (inactive)	1.93 µM (inactive)	2.62 µM (inactive)	2.84	0.658 µM (active)	5.27 µM (inactive)	26.2 µM (inactive)	8.24 µM (inactive)	3.83 µM (inactive)	3.24 µM (inactive)	3.75 µM (inactive)	3.76 µM (inactive)	4.88 µM (inactive)	4.42 µM (inactive)
Sc1ccc2ccccc2c1CNCc1ccccc1	15.4 µM (inactive)	14.3 µM (inactive)	21.8 µM (inactive)	5.78 µM (inactive)	19.7 µM (inactive)	12.5 µM (inactive)	2.25 µM (inactive)	19.4 µM (inactive)	27.9 µM (inactive)	16.4	12.3 µM (inactive)	25.3 µM (inactive)	22.9 µM (inactive)	30.8 µM (inactive)	9.75 µM (inactive)	18.4 µM (inactive)	14.5 µM (inactive)	12.8 µM (inactive)	3.44 µM (inactive)	18.5 µM (inactive)
CC(=O)NC(CS)C(=O)NC(CO)C(=O)NC(CO)C(=O)NC(Cc1c[nH]c2ccccc12)C(=O)N1CCCC1C(=O)NC(CO)C(=O)NC(Cc1c[nH]c2ccccc12)C(=O)NC(Cc1c[nH]cn1)C(=O)NC(CO)C(=O)NC(Cc1c[nH]c2ccccc12)C(=O)NCC(=O)NCC(=O)NC(CC(=O)O)C(=O)NC(CCC(N)=O)C(=O)NC(CCCCN)C(=O)NC(Cc1ccccc1)C(=O)NC(CCCNC(=N)N)C(=O)NC(CCCCN)C(N)=O (stereo not given) (Ac-CSSWPSWHSWGGDQKFRK-NH2; configuration not given here)	> 25 µM (inactive)	> 25 µM (inactive)	> 25 µM (inactive)	> 25 µM (inactive)	> 25 µM (inactive)	> 25 µM (inactive)	> 25 µM (inactive)	> 25 µM (inactive)	> 25 µM (inactive)	> 25	> 25 µM (inactive)	> 25 µM (inactive)	> 25 µM (inactive)	> 25 µM (inactive)	> 25 µM (inactive)	> 25 µM (inactive)	> 25 µM (inactive)	> 25 µM (inactive)	> 25 µM (inactive)	> 25 µM (inactive)
C=C(C)C1(Sc2ccc(OC)cc2)CC1	34.1 µM (inactive)	51.9 µM (inactive)	17.8 µM (inactive)	17.3 µM (inactive)	21.3 µM (inactive)	9.29 µM (inactive)	13.8 µM (inactive)	26.9 µM (inactive)	22.3 µM (inactive)	24.4	7.94 µM (inactive)	30.8 µM (inactive)	27.6 µM (inactive)	48.1 µM (inactive)	29.6 µM (inactive)	57.9 µM (inactive)	31.2 µM (inactive)	29 µM (inactive)	14.6 µM (inactive)	43.4 µM (inactive)
COc1cnc2cc(C(=O)O)c3ccccc3c2c1	> 100 µM (inactive)	> 100 µM (inactive)	> 100 µM (inactive)	> 100 µM (inactive)	> 100 µM (inactive)	28.1 µM (inactive)	> 100 µM (inactive)	> 100 µM (inactive)	> 100 µM (inactive)	> 100	> 100 µM (inactive)	> 100 µM (inactive)	> 100 µM (inactive)	> 100 µM (inactive)	> 100 µM (inactive)	> 100 µM (inactive)	> 100 µM (inactive)	> 100 µM (inactive)	> 100 µM (inactive)	> 100 µM (inactive)
CC(C)(CCc1nc2ccccc2[nH]1)C(=O)O	> 100 µM (inactive)	> 100 µM (inactive)	> 100 µM (inactive)	> 100 µM (inactive)	> 100 µM (inactive)	> 100 µM (inactive)	> 100 µM (inactive)	> 100 µM (inactive)	> 100 µM (inactive)	> 100	> 100 µM (inactive)	> 100 µM (inactive)	> 100 µM (inactive)	> 100 µM (inactive)	> 100 µM (inactive)	> 100 µM (inactive)	> 100 µM (inactive)	> 100 µM (inactive)	> 100 µM (inactive)	> 100 µM (inactive)
C=C1C(=O)O[C@H]2[C@@H](O)[C@H](C)CCC/C(C)=C/CC[C@@]3(C)O[C@@H]3C[C@@H]12	22.3 µM (inactive)	9.79 µM (inactive)	11.5 µM (inactive)	4.43 µM (inactive)	18.1 µM (inactive)	8.38 µM (inactive)	2.29 µM (inactive)	18.1 µM (inactive)	5.45 µM (inactive)	1.92	7.5 µM (inactive)	20.5 µM (inactive)	4.22 µM (inactive)	1.86 µM (inactive)	3.61 µM (inactive)	6.03 µM (inactive)	8.75 µM (inactive)	8.73 µM (inactive)	1.88 µM (inactive)	12.9 µM (inactive)
O=C(O)CN(CC(=O)O)Cc1cc(C#Cc2ccc(C#Cc3ccccc3)cc2)cc(CN(CC(=O)O)CC(=O)O)n1	18.4 µM (inactive)	12.4 µM (inactive)	31 µM (inactive)	11.1 µM (inactive)	29.2 µM (inactive)	17.1 µM (inactive)	8.91 µM (inactive)	27.4 µM (inactive)	12.9 µM (inactive)	5.98	22.8 µM (inactive)	29.1 µM (inactive)	20.3 µM (inactive)	17.5 µM (inactive)	13.1 µM (inactive)	17.3 µM (inactive)	32.7 µM (inactive)	5.11 µM (inactive)	18.2 µM (inactive)	7.11 µM (inactive)
COc1ccc(NC(=S)N/N=C(\c2ccccc2)c2ccccn2)cc1	0.06 µM (active)	0.104 µM (active)	0.172 µM (active)	< 0.0152 µM (active)	2.5 µM (inactive)	< 0.01 µM (active)	< 0.01 µM (active)	0.121 µM (active)	< 0.0118 µM (active)	< 0.01	1.96 µM (inactive)	0.128 µM (active)	< 0.0543 µM (active)	0.0244 µM (active)	< 0.0267 µM (active)	0.568 µM (active)	< 0.01 µM (active)	< 0.0198 µM (active)	< 0.01 µM (active)	< 0.01 µM (active)
